From patent US20250129070A1, “BIFUNCTIONAL ANDROGEN RECEPTOR COMPOUNDS” (priority 2023, published 2025) come the findings set out here.

pEC50, pIC50: −log10 of the molar value. Like-named read-outs stand apart in the source and are kept apart here.

Common to all, as to type: cell-based
In assay [1] the target is Histone H3.3/CBP-BD Interaction (Homo sapiens, UniProt Q92793). Kind of assay: NanoBRET cellular assay (Histone H3.3/CBP-BD Interaction Assay). For orientation: Bioluminescence resonance energy transfer reports proximity on the nanometre scale.
Histone H3.3/CBP-BD Interaction, sequence (Q92793 1085-1192 limits assumed): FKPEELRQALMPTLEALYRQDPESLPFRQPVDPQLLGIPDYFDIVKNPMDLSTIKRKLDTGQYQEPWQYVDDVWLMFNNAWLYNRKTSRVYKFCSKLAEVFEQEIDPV
A further assay has as its system VCaP cells. Kind of assay: VCaP growth inhibition assay. To be noted: 30 pM R1881, 9 days, CTG. The method, boiled down: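 VCaP cells in phenol red-free DMEM/5% CSS, pre-incubated 72 h, then stimulated with R1881 (final 30 pM) and treated with 1:5 serial dilutions (final 100 nM to 10 fM) for 9 days at 37 °C. Viability by CellTiter-Glo luminescence; IC50 from 4-parameter logistic fit of RLU vs concentration.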

For another assay, the system named is AR / CBP ternary complex. Kind of assay: Ternary complex formation assay (sandwich ELISA, AR capture / CBP detection) in VCaP cell lysates. To be noted: 1.5 hours treatment, sandwich ELISA (AR capture, CBP or p300 detection). Summed up:
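VCaP cells (50K/well, 5% charcoal-stripped FBS, ≥3 days) treated with bifunctional compound for 1.5 h, then lysed 30 min at 4 °C. AR captured on anti-AR (AR 441) plates; bound CBP or p300 detected by rabbit mAb plus HRP secondary. QuantaRed chemifluorescence read at ex 570/em 585, immediately and at 5 and 15 min.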
In general terms: In an ELISA, binding on a coated surface is turned into a signal by an enzyme label.

A further assay has as its system HEK-293 cells. Kind of assay: HEK-293 growth inhibition assay. To be noted: 3 days, CTG. Summed up:
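HEK-293 cells plated 24 hours before compound treatment, then exposed for 3 days at 37°C/5% CO2. Viability by CellTiter-Glo luminescence after 20 minutes at room temperature. IC50 from RLU versus concentration via 4-parameter logistic nonlinear regression.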

As to `CNC(=O)N1CCc2c(c(N3CCCc4cc(-c5cnn(C)c5)c(C(F)F)cc43)nn2C2CCOCC2)C1` [GNE-781, reference compound], the pIC50 in assay [1] (HEK293 cells transfected with Histone H3.3-HaloTag and CBP-BD-NanoLuc, 22 hours treatment, test compounds starting at 1 uM, SGC-CBP-30 starting at 10 uM, 10-dose with 3-fold dilution) was 9.91.

For the compound `CC(=O)N1CCc2c(c(N3CCCc4cc(-c5cnn(C)c5)c(C(F)F)cc43)nn2C2CCN(C(=O)C3CCN(c4ncc(C(=O)NC5C(C)(C)C(Oc6ccc(C#N)c(Cl)c6)C5(C)C)cn4)CC3)CC2)C1` (centres unmarked) [Compound 22, 2-[4-[4-[5-acetyl-3-[7-(difluoromethyl)-6-(1-methylpyrazol-4-yl)-3,4-dihydro-2H-quinolin-1-yl]-6,7-dihydro-4H-pyrazolo[4,3-c]pyridin-1-yl]piperidine-1-carbonyl]-1-piperidyl]-N-[3-(3-chloro-4-cyano-phenoxy)-2,2,4,4-tetramethyl-cyclobutyl]pyrimidine-5-carboxamide], the pIC50 is not below 10.00 in the assay on VCaP cells and less than 5.00 in the assay with HEK-293 cells. In the assay on AR / CBP ternary complex, this compound had a pEC50 of more than 9.00.

`COc1cc(OC2C(C)(C)C(NC(=O)c3cnc(N4CCC(CN5CCC(n6nc(N7CCCc8cc(-c9cnn(C)c9)c(C(F)F)cc87)c7c6CCN(C(C)=O)C7)CC5)C(C)(C)C4)nc3)C2(C)C)ccc1C#N` (centres unmarked) [Compound 360, 2-[4-[[4-[5-acetyl-3-[7-(difluoromethyl)-6-(1-methylpyrazol-4-yl)-3,4-dihydro-2H-quinolin-1-yl]-6,7-dihydro-4H-pyrazolo[4,3-c]pyridin-1-yl]-1-piperidyl]methyl]-3,3-dimethyl-1-piperidyl]-N-[3-(4-cyano-3-methoxy-phenoxy)-2,2,4,4-tetramethyl-cyclobutyl]pyrimidine-5-carboxamide]: the pIC50 in the assay with VCaP cells was not below 10.00; in the assay with HEK-293 cells it was less than 6.00. Moreover, the pEC50 in the assay with AR / CBP ternary complex was more than 9.00.

As to `CNC(=O)N1CCc2c(c(N3CCCc4cc(-c5cnn(C)c5)c(C(F)F)cc43)nn2C2CCN(C(=O)COCCOCCCN3CCN(c4ncc(C(=O)NC5C(C)(C)C(Oc6ccc(C#N)c(Cl)c6)C5(C)C)cn4)CC3)CC2)C1` (centres unmarked) [Compound 102, 1-[1-[2-[2-[3-[4-[5-[[3-(3-chloro-4-cyano-phenoxy)-2,2,4,4-tetramethyl-cyclobutyl]carbamoyl]pyrimidin-2-yl]piperazin-1-yl]propoxy]ethoxy]acetyl]-4-piperidyl]-3-[7-(difluoromethyl)-6-(1-methylpyrazol-4-yl)-3,4-dihydro-2H-quinolin-1-yl]-N-methyl-6,7-dihydro-4H-pyrazolo[4,3-c]pyridine-5-carboxamide], the values for the pIC50 in the assay with VCaP cells and in the assay on HEK-293 cells were 9.00 to 10.00 and less than 5.00, respectively. The pEC50 in the assay on AR / CBP ternary complex is more than 9.00.

Take `CC(=O)N1CCc2c(c(N3CCCc4cc(-c5cnn(C)c5)c(C(F)F)cc43)nn2C2CCN(CC3CCN(c4ncc(C(=O)NC5C(C)(C)C(Oc6ccc(C#N)c(Cl)c6)C5(C)C)cn4)CC3(C)C)CC2)C1` (centres unmarked) [Compound 356, 2-[4-[[4-[5-acetyl-3-[7-(difluoromethyl)-6-(1-methylpyrazol-4-yl)-3,4-dihydro-2H-quinolin-1-yl]-6,7-dihydro-4H-pyrazolo[4,3-c]pyridin-1-yl]-1-piperidyl]methyl]-3,3-dimethyl-1-piperidyl]-N-[3-(3-chloro-4-cyano-phenoxy)-2,2,4,4-tetramethyl-cyclobutyl]pyrimidine-5-carboxamide]: the pIC50 was not below 10.00 with VCaP cells and less than 6.00 in the assay on HEK-293 cells. The pEC50 in the assay on AR / CBP ternary complex was more than 9.00.

`CC(=O)N1CCc2c(c(N3CCCc4cc(-c5cnn(C)c5)c(C(F)F)cc43)nn2C2CCN(C(=O)CC3CCN(c4ncc(C(=O)NC5C(C)(C)C(Oc6ccc(C#N)c(Cl)c6)C5(C)C)cn4)CC3)CC2)C1` (centres unmarked) [Compound 172, 2-[4-[2-[4-[5-acetyl-3-[7-(difluoromethyl)-6-(1-methylpyrazol-4-yl)-3,4-dihydro-2H-quinolin-1-yl]-6,7-dihydro-4H-pyrazolo[4,3-c]pyridin-1-yl]-1-piperidyl]-2-oxo-ethyl]-1-piperidyl]-N-[3-(3-chloro-4-cyano-phenoxy)-2,2,4,4-tetramethyl-cyclobutyl]pyrimidine-5-carboxamide]: the values for the pIC50 in the assay with VCaP cells and in the assay with HEK-293 cells were not below 10.00 and less than 5.00, respectively. In the assay with AR / CBP ternary complex, this compound showed a pEC50 of more than 9.00.

For the compound `CNC(=O)N1CCc2c(c(N3CCCc4cc(-c5cnn(C)c5)c(C(F)F)cc43)nn2C2CCN(C(=O)CN3CCN(c4ncc(C(=O)NC5C(C)(C)C(Oc6ccc(C#N)c(Cl)c6)C5(C)C)cn4)CC3)CC2)C1` (centres unmarked) [Compound 109, 1-[1-[2-[4-[5-[[3-(3-chloro-4-cyano-phenoxy)-2,2,4,4-tetramethyl-cyclobutyl]carbamoyl]pyrimidin-2-yl]piperazin-1-yl]acetyl]-4-piperidyl]-3-[7-(difluoromethyl)-6-(1-methylpyrazol-4-yl)-3,4-dihydro-2H-quinolin-1-yl]-N-methyl-6,7-dihydro-4H-pyrazolo[4,3-c]pyridine-5-carboxamide], the pIC50 in the assay with VCaP cells was not below 10.00; in assay [1], less than 6.00; in the assay on HEK-293 cells, less than 5.00. In the assay with AR / CBP ternary complex, this compound gave a pEC50 of more than 9.00.

Turning to `CNC(=O)N1CCc2c(c(N3CCCc4cc(-c5cnn(C)c5)c(C(F)F)cc43)nn2C2CCN(C(=O)COC3CCN(c4ncc(C(=O)NC5C(C)(C)C(Oc6ccc(C#N)c(Cl)c6)C5(C)C)cn4)CC3)CC2)C1` (centres unmarked) [Compound 100, 1-[1-[2-[[1-[5-[[3-(3-chloro-4-cyano-phenoxy)-2,2,4,4-tetramethyl-cyclobutyl]carbamoyl]pyrimidin-2-yl]-4-piperidyl]oxy]acetyl]-4-piperidyl]-3-[7-(difluoromethyl)-6-(1-methylpyrazol-4-yl)-3,4-dihydro-2H-quinolin-1-yl]-N-methyl-6,7-dihydro-4H-pyrazolo[4,3-c]pyridine-5-carboxamide], the figures for the pIC50 in the assay with VCaP cells and in the assay on HEK-293 cells were not below 10.00 and less than 5.00, respectively. This compound also showed a pEC50 with AR / CBP ternary complex of more than 9.00.

As for `C[C@@H]1CC(=O)Nc2cccc(-c3ccc4c(c3)c(C3CC3)nn4CCCN3CCN(c4ncc(C(=O)NC5C(C)(C)C(Oc6ccc(C#N)c(Cl)c6)C5(C)C)cn4)CC3)c2N1` (stereo partly drawn) [Compound 59, N-[3-(3-chloro-4-cyano-phenoxy)-2,2,4,4-tetramethyl-cyclobutyl]-2-[4-[3-[3-cyclopropyl-5-[(4R)-4-methyl-2-oxo-1,3,4,5-tetrahydro-1,5-benzodiazepin-6-yl]indazol-1-yl]propyl]piperazin-1-yl]pyrimidine-5-carboxamide], the pIC50 with VCaP cells was less than 7.00; in the assay with HEK-293 cells, less than 5.00. The same compound showed a pEC50 in the assay with AR / CBP ternary complex of less than 7.00.

As to `CC(=O)N1CCc2c(c(-c3cccc4cc(-c5ccc(C(=O)NCc6ncc(C(=O)NC7C(C)(C)C(Oc8ccc(C#N)c(Cl)c8)C7(C)C)cn6)nc5)ncc34)nn2C2CCOCC2)C1` (centres unmarked) [Compound 79, 2-[[[5-[8-(5-acetyl-1-tetrahydropyran-4-yl-6,7-dihydro-4H-pyrazolo[4,3-c]pyridin-3-yl)-3-isoquinolyl]pyridine-2-carbonyl]amino]methyl]-N-[3-(3-chloro-4-cyano-phenoxy)-2,2,4,4-tetramethyl-cyclobutyl]pyrimidine-5-carboxamide], the pIC50 is 9.00 to 10.00 with VCaP cells and less than 5.00 in the assay on HEK-293 cells. Also, in the assay on AR / CBP ternary complex, the pEC50 was more than 9.00.

Consider `CC(=O)N1CCc2c(c(N3CCCc4cc(-c5cnn(C)c5)c(C(F)F)cc43)nn2C2CCN(C(=O)OC3CCN(c4ncc(C(=O)NC5C(C)(C)C(Oc6ccc(C#N)c(Cl)c6)C5(C)C)cn4)CC3)CC2)C1` (centres unmarked) [Compound 70, [1-[5-[[3-(3-chloro-4-cyano-phenoxy)-2,2,4,4-tetramethyl-cyclobutyl]carbamoyl]pyrimidin-2-yl]-4-piperidyl]4-[5-acetyl-3-[7-(difluoromethyl)-6-(1-methylpyrazol-4-yl)-3,4-dihydro-2H-quinolin-1-yl]-6,7-dihydro-4H-pyrazolo[4,3-c]pyridin-1-yl]piperidine-1-carboxylate], for which the pIC50 was 9.00 to 10.00 with VCaP cells and less than 5.00 in the assay with HEK-293 cells. Besides, the pEC50 with AR / CBP ternary complex was more than 9.00.

As to `CNC(=O)N1CCc2c(c(N3CCCc4cc(-c5cnn(C)c5)c(C(F)F)cc43)nn2C2CCN(C(=O)COCCOCC3CCN(c4ncc(C(=O)NC5C(C)(C)C(Oc6ccc(C#N)c(Cl)c6)C5(C)C)cn4)CC3)CC2)C1` (centres unmarked) [Compound 104, 1-[1-[2-[2-[[1-[5-[[3-(3-chloro-4-cyano-phenoxy)-2,2,4,4-tetramethyl-cyclobutyl]carbamoyl]pyrimidin-2-yl]-4-piperidyl]methoxy]ethoxy]acetyl]-4-piperidyl]-3-[7-(difluoromethyl)-6-(1-methylpyrazol-4-yl)-3,4-dihydro-2H-quinolin-1-yl]-N-methyl-6,7-dihydro-4H-pyrazolo[4,3-c]pyridine-5-carboxamide], the values for the pIC50 in the assay on VCaP cells and with HEK-293 cells were 9.00 to 10.00 and less than 5.00, respectively. The compound also showed a pEC50 in the assay with AR / CBP ternary complex of more than 9.00.

By pIC50 is commonly meant −log10 of the IC50, conventionally taken in molar units. Low values mean a high IC50, high ones a low IC50. One may read the pEC50 as the EC50 on a negative log10 scale, so that one unit is a factor of ten. Lower therefore signals a high EC50.
